Literature values in patent US9597313B2 (priority 2006, dated 2017).

Test system: aflatoxin-N7-guanine adducts
Conditions: 100 mg chlorophyllin three times a day for four months

chlorophyllin
Reduction in median urinary levels of aflatoxin-N7-guanine adducts compared with placebo: 55%
